Literature values, collected in patent US10184942B2, “Natriuretic peptide receptor as a biomarker for diagnosis and prognosis of cancer” (UNIVERSITY OF SOUTH FLORIDA, priority 2011, dated 2019).

Test system: PCa cells
Settings: in vitro and in mice

| Compound | proliferation of PCa cells |
| --- | --- |
| VD: vessel dilator, an ANP prohormone peptide (EVVPPQVLSEPNEEAGAALSPLPEVPPWTGEVSPAQR; Vessel dilator; UniProt P01160 56-92, looked up) | inhibit the proliferation |
| CC[C@H](C)[C@@H]1NC(=O)[C@H](CCCNC(=N)N)NC(=O)[C@H](CC(=O)O)NC(=O)[C@H](CCSC)NC(=O)[C@H](CCCNC(=N)N)NC(=O)CNC(=O)CNC(=O)[C@H](Cc2ccccc2)NC(=O)[C@@H](NC(=O)[C@H](CO)NC(=O)[C@H](CO)NC(=O)[C@H](CCCNC(=N)N)NC(=O)[C@H](CCCNC(=N)N)NC(=O)[C@H](CC(C)C)NC(=O)[C@@H](N)CO)CSSC[C@@H](C(=O)N[C@@H](CC(N)=O)C(=O)N[C@@H](CO)C(=O)N[C@@H](Cc2ccccc2)C(=O)N[C@@H](CCCNC(=N)N)C(=O)N[C@@H](Cc2ccc(O)cc2)C(=O)O)NC(=O)CNC(=O)[C@H](CC(C)C)NC(=O)CNC(=O)[C@H](CO)NC(=O)[C@H](CCC(N)=O)NC(=O)[C@H](C)NC(=O)CNC1=O [ANP, atrial natriuretic peptide] | inhibit the proliferation |
